According to ChEMBL document CHEMBL5212743, “Selectivity Literature for EUbOPEN Chemogenomics Library wave 3” (2023):
Positions count from the first letter of the chain named.

Key:
[1] = tested on: T1, Receptor-type tyrosine-protein kinase FLT3 (Homo sapiens), P36888 [D835V]; assay: (§1) Selectivity interaction (KinomeScan (DiscoverX)) EUB0000702a FLT3; details: at 1 µM
T1 sequence (whole entry): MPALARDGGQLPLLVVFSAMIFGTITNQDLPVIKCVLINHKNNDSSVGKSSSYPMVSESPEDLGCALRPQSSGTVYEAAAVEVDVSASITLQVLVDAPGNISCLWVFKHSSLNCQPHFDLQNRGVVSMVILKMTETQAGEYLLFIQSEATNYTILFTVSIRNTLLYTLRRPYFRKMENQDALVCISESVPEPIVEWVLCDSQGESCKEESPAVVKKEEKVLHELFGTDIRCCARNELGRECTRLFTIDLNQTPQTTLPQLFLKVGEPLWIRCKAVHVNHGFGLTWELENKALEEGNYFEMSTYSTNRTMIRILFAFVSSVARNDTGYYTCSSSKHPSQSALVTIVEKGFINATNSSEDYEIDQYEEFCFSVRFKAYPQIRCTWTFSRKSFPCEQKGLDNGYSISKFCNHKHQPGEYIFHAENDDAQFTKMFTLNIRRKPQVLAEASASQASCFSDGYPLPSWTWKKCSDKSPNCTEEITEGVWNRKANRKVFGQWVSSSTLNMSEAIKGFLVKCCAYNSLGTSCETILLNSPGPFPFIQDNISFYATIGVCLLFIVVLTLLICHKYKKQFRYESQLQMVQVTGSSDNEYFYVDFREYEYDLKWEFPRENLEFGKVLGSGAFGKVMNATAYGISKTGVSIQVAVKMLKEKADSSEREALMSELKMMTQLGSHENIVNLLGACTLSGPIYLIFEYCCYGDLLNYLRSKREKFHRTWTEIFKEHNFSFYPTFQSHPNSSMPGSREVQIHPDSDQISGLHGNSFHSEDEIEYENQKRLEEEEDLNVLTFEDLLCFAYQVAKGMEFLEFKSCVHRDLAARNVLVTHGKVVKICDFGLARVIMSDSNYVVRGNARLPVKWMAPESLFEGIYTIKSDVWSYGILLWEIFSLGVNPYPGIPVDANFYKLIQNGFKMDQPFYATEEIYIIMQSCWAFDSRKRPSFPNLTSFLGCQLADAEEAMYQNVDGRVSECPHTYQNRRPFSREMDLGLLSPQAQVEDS

[2] = tested on: T2, Receptor-type tyrosine-protein kinase FLT3 (Homo sapiens), P36888 [D835Y]; assay: as §1; details: at 1 µM
T2 sequence (whole entry): T1 sequence (whole entry) with V835Y

[3] = tested on: T3, Receptor-type tyrosine-protein kinase FLT3 (Homo sapiens), P36888 [N841I]; assay: as §1; details: at 1 µM
T3 sequence (whole entry): T1 sequence (whole entry) with V835D, N841I

[4] = tested on: Receptor-type tyrosine-protein kinase FLT3 (Homo sapiens), P36888 [UNDEFINED MUTATION]; assay: as §1; details: at 1 µM
[5] = molecular target: Phosphatidylinositol 4,5-bisphosphate 3-kinase catalytic subunit gamma isoform (Homo sapiens, UniProt P48736); assay: Selectivity interaction (KinomeScan (DiscoverX, competition-binding assay)) EUB0000178b PIK3CG
Sequence of Phosphatidylinositol 4,5-bisphosphate 3-kinase catalytic subunit gamma isoform (P48736 whole entry, canonical isoform): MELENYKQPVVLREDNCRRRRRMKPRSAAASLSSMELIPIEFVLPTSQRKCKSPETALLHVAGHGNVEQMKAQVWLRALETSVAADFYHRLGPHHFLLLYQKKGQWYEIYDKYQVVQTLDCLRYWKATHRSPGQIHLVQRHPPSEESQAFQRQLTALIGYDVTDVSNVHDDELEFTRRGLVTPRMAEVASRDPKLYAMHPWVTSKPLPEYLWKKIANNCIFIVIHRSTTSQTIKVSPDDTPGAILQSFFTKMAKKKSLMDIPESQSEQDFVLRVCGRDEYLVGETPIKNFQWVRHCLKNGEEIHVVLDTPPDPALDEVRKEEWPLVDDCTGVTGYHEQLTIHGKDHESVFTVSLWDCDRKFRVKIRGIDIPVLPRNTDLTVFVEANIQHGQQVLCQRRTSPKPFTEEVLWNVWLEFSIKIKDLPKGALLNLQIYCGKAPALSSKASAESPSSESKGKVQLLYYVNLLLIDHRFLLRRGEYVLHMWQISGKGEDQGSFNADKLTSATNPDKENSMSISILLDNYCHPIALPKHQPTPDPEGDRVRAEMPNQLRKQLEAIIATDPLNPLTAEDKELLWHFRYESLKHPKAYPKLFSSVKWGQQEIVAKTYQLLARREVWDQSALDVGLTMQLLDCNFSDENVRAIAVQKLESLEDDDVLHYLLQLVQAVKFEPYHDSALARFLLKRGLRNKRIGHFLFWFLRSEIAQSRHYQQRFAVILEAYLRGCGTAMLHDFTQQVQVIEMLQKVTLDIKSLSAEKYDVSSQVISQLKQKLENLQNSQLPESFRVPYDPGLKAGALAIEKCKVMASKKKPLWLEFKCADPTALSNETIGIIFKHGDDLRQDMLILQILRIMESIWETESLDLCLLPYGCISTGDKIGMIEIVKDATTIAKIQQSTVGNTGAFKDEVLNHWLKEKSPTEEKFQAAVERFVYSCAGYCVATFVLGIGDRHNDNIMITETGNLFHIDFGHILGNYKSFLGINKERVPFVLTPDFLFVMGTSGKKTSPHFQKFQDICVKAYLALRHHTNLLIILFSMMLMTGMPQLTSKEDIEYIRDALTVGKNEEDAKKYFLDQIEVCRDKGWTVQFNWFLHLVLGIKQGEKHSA

SMILES | % of control [1] | % of control [2] | % of control [3] | % of control [4] | Kd [5]
CN(c1ccnc(CNc2nc(Nc3ccc4c(c3)CC(=O)N4)ncc2C(F)(F)F)n1)S(C)(=O)=O [PF-00911705] | 1.5% | 2% | 0% | 0.7% | 
CN1C(=O)c2sccc2N(C)c2nc(Nc3ccc(S(N)(=O)=O)cc3)ncc21 |  |  |  |  | 8.4 nM
